Data taken from patent US9028858B2 (Coloplast A/S, priority 2003, dated 2015).
Where two headings read alike, the source gives them in different places.

Settings: 23° C., 8 months, pH 7 without buffer
Experimental: Samples were β-sterilized at 50 kGy and stored at 23° C. for 8 months.
The results were calculated from 86 separate samples (mean value±standard deviation of mean value) (Table 5.1).

SMILES: OO [Std H2O2, hydrogen peroxide]
- H2O2 loss per day (%) (initial 1% H2O2, 0% PVP C-15, 50 kGy): 0.088 ± 0.029%
- H2O2 loss per day (%) (initial 1% H2O2, 6% PVP C-15, 50 kGy): 0.167 ± 0.048%
